In experiment [1] the target is acetylcholinesterase (AChE) (Electrophorus electricus, UniProt O42275). Nature of the experiment: biochemical. As to conditions: for IC50: AChE from Electrophorus electricus, substrate acetylthiocholine, 30 min pre-incubation, mean ± SEM of triplicate independent experiments; for Selectivity: AChE versus BuChE (values fit IC50 BuChE / IC50 AChE).
The target in another experiment is AChE (Electrophorus electricus, UniProt O42275). Nature of the experiment: Kinetic study of AChE inhibition (Michaelis-Menten, Lineweaver-Burk). As to conditions: Lineweaver-Burk plots, variation in Km and Vmax. Type of experiment: biochemical. The protocol:
For this purpose, the rate of enzyme activity was measured at eight different concentrations of substrate ATC.
The assays were carried out in a total volume of 200 μL per well containing AChE from Electrophorus electricus (0.20 unit/mL) in PBS, the synthesized compound in DMSO, PBS at IC50, 2× IC50 concentration, and substrate solution. The general procedure was as follows: AChE and the synthesized compounds 7a to IC50 and twice concentrations in PBS were mixed and incubated at rt for 30 min. After incubation, substrate from 3.8 × 10^−3–0.48 mM was added into the mixture. The reaction was recorded for 10 min measuring the absorbance at 405 nm using a Microtiter plate reader (Multiskan EX, Thermo). Data were plotted using GraphPad Prism v4.03 software (GraphPad Software Inc., San Diego, CA, USA) to obtain the Michaelis–Menten constant (Km) and maximal velocity (Vmax) values. Km values were expressed in μM and Vmax as mol/min/mg protein and correspond to the mean ± SD of three independent assays in triplicate.
Figure 1 The Lineweaver–Burk plot of AChE (0.02 U) with an acetylthiocholine substrate in the absence and presence of inhibitor 7a.

Experiment [2] has as its target T1, butyrylcholinesterase (BuChE) (Equus caballus, UniProt P81908).
T1 construct: from Electrophorus electricus and equine serum; from tissue; host or cells: equine serum
Nature of the experiment: biochemical. Particulars: BuChE from equine serum, substrate butyrylthiocholine, 30 min pre-incubation, mean ± SEM of triplicate independent experiments.

The values that follow come from paper PMC6337627 (Molecules, 2019).

Usually IC50 stands for the concentration at which inhibition is half-maximal. Low values mean higher potency, high ones lower potency.

Values joined by “and” are separate entries in the source; they are usually repeats but may differ in a detail not shown here. Equal entries are not always repeated. Starred links: 1 amine or outer side, 2 acyl side, 3 side chain; linkers in the order of their positions; H or OH if unused. Non-standard residues stand in square brackets, D forms with d. Residues, ends and D or L forms follow the SMILES beside them. ξ: configuration not given here. Suc = O=C(CCC(=O)[*:2])[*:1]; Nphe = O=C(O)CNCc1ccccc1; ξF = NC(Cc1ccccc1)C(=O)O; Ava = NCCCCC(=O)O; GABA = NCCCC(=O)O; βAla = NCCC(=O)O

T1 sequence (P81908 whole entry): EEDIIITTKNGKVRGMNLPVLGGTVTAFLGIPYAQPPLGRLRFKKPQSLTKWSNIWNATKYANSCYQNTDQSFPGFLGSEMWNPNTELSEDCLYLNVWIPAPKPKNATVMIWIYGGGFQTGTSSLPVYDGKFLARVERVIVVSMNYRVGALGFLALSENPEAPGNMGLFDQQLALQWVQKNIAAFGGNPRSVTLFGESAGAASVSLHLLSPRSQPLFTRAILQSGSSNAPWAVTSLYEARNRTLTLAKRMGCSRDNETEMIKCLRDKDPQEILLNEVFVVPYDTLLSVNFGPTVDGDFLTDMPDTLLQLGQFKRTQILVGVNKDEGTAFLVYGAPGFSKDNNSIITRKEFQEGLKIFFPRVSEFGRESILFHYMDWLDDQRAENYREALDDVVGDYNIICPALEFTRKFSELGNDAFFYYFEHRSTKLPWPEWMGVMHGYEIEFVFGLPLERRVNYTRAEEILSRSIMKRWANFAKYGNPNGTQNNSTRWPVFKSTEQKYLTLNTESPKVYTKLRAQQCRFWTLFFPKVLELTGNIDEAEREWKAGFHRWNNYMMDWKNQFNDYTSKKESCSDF
Chain of acetylcholinesterase (AChE) (O42275 24-633): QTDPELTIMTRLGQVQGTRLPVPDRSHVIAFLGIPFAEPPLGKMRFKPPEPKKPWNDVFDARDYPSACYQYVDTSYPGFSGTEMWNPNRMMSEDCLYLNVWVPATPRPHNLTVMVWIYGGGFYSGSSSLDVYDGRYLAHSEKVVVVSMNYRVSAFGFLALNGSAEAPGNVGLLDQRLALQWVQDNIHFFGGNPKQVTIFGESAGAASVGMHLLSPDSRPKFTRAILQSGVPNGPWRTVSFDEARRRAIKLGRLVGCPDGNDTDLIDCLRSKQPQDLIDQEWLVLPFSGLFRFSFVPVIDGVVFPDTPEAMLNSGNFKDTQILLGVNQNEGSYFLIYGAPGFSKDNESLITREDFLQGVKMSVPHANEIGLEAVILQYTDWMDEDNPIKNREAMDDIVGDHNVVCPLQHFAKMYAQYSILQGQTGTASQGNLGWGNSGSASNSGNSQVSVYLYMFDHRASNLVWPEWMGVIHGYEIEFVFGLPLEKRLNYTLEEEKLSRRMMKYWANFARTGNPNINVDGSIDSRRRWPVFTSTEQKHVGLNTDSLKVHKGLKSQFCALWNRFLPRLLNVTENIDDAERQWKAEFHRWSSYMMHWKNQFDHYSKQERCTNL
Chain of AChE (O42275 24-633): as above

As to `NCCCC(=O)N(CC(=O)NC(Cc1ccccc1)C(=O)O)Cc1ccccc1` (stereo not shown) [7a, 10-Amino-2,6-dibenzyl-4,7-dioxo-3,6-diazadecanoic acid] (H-[GABA]-[Nphe]-[ξF]-OH), in experiment [1], the IC50 stood at 3.67 ± 0.8 µM and the Selectivity is reported as 66.44. Also, on AChE, the “kinetic mode of AChE inhibition” value is listed as “mixed-type inhibition”. The molecule also came in with a half-maximal inhibitory concentration (IC50) in experiment [2] of 244 ± 4.6 µM.

In the case of `NCCC(=O)N(CC(=O)NC(Cc1ccccc1)C(=O)O)Cc1ccccc1` (stereo not shown) [7b, 9-Amino-2,6-dibenzyl-4,7-dioxo-3,6-diazanonanoic acid] (H-[βAla]-[Nphe]-[ξF]-OH), the half-maximal inhibitory concentration (IC50) in experiment [1] stood at 41.3 ± 2.3 µM; in experiment [2] it was 461 ± 6.2 µM. The molecule further had a Selectivity in experiment [1] of 11.17.

In experiment [1], `O=C(O)CCCN(CC(=O)NC(Cc1ccccc1)C(=O)O)C(=O)c1ccccc1` (stereo not shown) [6d] displayed an IC50 of 10.6 ± 1.5 µM and a Selectivity of 28.36. Also, half-maximal inhibition in experiment [2] (IC50) was put at 302 ± 5.8 µM.

As to `NCCCCC(=O)N(CC(=O)NC(Cc1ccccc1)C(=O)O)Cc1ccccc1` (stereo not shown) [7c, 11-Amino-2,6-dibenzyl-4,7-dioxo-3,6-diazaundecanoic acid] (H-[Ava]-[Nphe]-[ξF]-OH), the IC50 in experiment [1] was determined as 12.6 ± 1.6 µM; in experiment [2], 636.7 ± 3.7 µM. In addition, the Selectivity in experiment [1] came to 50.69.

Take `O=C(O)CCC(=O)N(CC(=O)NC(Cc1ccccc1)C(=O)O)Cc1ccccc1` (stereo not shown) [6e, 2,6-Dibenzyl-4,7-dioxo-3,6-diazadecanedioic acid] (Suc-[Nphe]-[ξF]-OH): the IC50 was 305 ± 5.7 µM in experiment [1]; 135 µM and 136 µM in experiment [2]. The same molecule registered a Selectivity in experiment [1] of 0.45.
